Measurements: patent US20240158446A1, “CYCLIC COMPOUND HAVING SELECTIVE INHIBITORY ACTION ON KRAS OVER HRAS AND NRAS” (CHUGAI SEIYAKU KABUSHIKI KAISHA, priority 2021, published 2024)
Where a SMILES comes first, the peptide text is derived from it. Bridges are numbered along the chain shown (N, C = ends). [ ]: non-standard residue; d: D form. hPhe(3-Cl-4-CF3) = N[C@@H](CCc1ccc(C(F)(F)F)c(Cl)c1)C(=O)O; NPrPhe(4-CF3) = CCCN[C@@H](Cc1ccc(C(F)(F)F)cc1)C(=O)O; NMeGly(cPent) = CN[C@H](C(=O)O)C1CCCC1; Pro(4,4-F2) = O=C(O)[C@@H]1CC(F)(F)CN1; Hyp = O=C(O)[C@@H]1C[C@@H](O)CN1; NMeD = CN[C@@H](CC(=O)O)C(=O)O; NMeL = CN[C@@H](CC(C)C)C(=O)O; NMeA = CN[C@@H](C)C(=O)O; Ac5c = NC1(C(=O)O)CCCC1; Aze = O=C(O)[C@@H]1CCN1; Ac4c = NC1(C(=O)O)CCC1; Sar = CNCC(=O)O

How the values were obtained:
[1] = target: GDP-bound HRAS wild-type protein (Homo sapiens, UniProt P01112); assay: Binding to HRAS by surface plasmon resonance (SPR), Single Cycle Kinetics; details: SPR, GDP-bound HRAS wild-type protein vs GDP-bound KRAS wild-type protein
Chain of GDP-bound HRAS wild-type protein (P01112 whole entry): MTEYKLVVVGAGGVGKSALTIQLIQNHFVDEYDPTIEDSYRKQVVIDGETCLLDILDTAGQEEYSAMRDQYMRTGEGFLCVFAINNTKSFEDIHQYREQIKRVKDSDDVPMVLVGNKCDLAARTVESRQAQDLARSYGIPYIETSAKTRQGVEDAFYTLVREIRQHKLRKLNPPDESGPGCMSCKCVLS

[2] = target: GDP-bound NRAS wild-type protein (Homo sapiens, UniProt P01111); assay: Binding to NRAS by surface plasmon resonance (SPR), Single Cycle Kinetics; details: SPR, GDP-bound NRAS wild-type protein vs GDP-bound KRAS wild-type protein
Chain of GDP-bound NRAS wild-type protein (P01111 whole entry): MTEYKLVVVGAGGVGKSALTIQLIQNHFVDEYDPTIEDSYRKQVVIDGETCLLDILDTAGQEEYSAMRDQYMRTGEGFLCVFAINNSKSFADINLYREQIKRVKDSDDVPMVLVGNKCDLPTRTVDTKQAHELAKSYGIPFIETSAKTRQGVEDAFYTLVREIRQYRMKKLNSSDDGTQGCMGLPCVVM

[3] = target: GDP-bound KRAS wild-type protein (Homo sapiens, UniProt P01116); assay: Binding to KRAS by surface plasmon resonance (SPR), Single Cycle Kinetics; details: SPR Single Cycle Kinetics, GDP-bound KRAS wild-type protein, 1:1 binding model; read-out: KRAS KD
Chain of GDP-bound KRAS wild-type protein (P01116 whole entry): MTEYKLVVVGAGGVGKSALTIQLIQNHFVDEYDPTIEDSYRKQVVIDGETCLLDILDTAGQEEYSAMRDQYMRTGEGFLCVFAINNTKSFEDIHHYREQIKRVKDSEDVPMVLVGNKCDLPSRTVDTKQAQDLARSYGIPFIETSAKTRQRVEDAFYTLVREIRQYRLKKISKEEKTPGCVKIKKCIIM

SMILES	HRAS/KRAS (ratio of KD value with respect to HRAS to KD value with respect to KRAS) [1]	NRAS/KRAS (ratio of KD value with respect to NRAS to KD value with respect to KRAS) [2]	Kd [3] [nM]
CCCN1C(=O)CN(C)C(=O)[C@@H]2CCN2C(=O)[C@H]([C@@H](C)CC)NC(=O)[C@H](CC(C)C)N(C)C(=O)C[C@@H](C(=O)N(C)C)N(C)C(=O)[C@H](C2CCCC2)N(C)C(=O)C2(CCCC2)NC(=O)[C@@H]2C[C@@H](OCC)CN2C(=O)[C@H](CCc2ccc(C(F)(F)F)c(Cl)c2)NC(=O)CN(C)C(=O)[C@@H]1Cc1ccc(C(F)(F)F)cc1 [PP0433] ([NMeL]I[Aze][Sar][NPrPhe(4-CF3)][Sar][hPhe(3-Cl-4-CF3)][Hyp](Et)[Ac5c][NMeGly(cPent)][NMeD]-NMe2; lactam N-11)	B (a compound having 3 or more and less than 10 is denoted as B)	B (a compound having 3 or more and less than 10 is denoted as B)	0.15
CCCN1C(=O)[C@@H]2CCN2C(=O)[C@H](C)N(C)C(=O)[C@H]([C@@H](C)CC)NC(=O)[C@H](CC(C)C)N(C)C(=O)C[C@@H](C(=O)N(C)C)N(C)C(=O)[C@H](C2CCCC2)N(C)C(=O)C2(CCC2)NC(=O)[C@@H]2CCCN2C(=O)[C@H](CCc2ccc(C(F)(F)F)c(Cl)c2)NC(=O)CN(C)C(=O)[C@@H]1Cc1ccc(C(F)(F)F)cc1 [PP0435] ([NMeL]I[NMeA][Aze][NPrPhe(4-CF3)][Sar][hPhe(3-Cl-4-CF3)]P[Ac4c][NMeGly(cPent)][NMeD]-NMe2; lactam N-11)	C (A compound having a KD ratio of 0.1 or more and less than 3 is denoted as C)	C (A compound having a KD ratio of 0.1 or more and less than 3 is denoted as C)	0.047
CCCN1C(=O)[C@@H]2CCN2C(=O)[C@H](C)N(C)C(=O)[C@H]([C@@H](C)CC)NC(=O)[C@H](CC(C)C)N(C)C(=O)C[C@@H](C(=O)N(C)C)N(C)C(=O)[C@H](C2CCCC2)N(C)C(=O)C2(CCCC2)NC(=O)[C@@H]2CC(F)(F)CN2C(=O)[C@H](CCc2ccc(C(F)(F)F)c(Cl)c2)NC(=O)CN(C)C(=O)[C@@H]1Cc1ccc(C(F)(F)F)cc1 [PP0436] ([NMeL]I[NMeA][Aze][NPrPhe(4-CF3)][Sar][hPhe(3-Cl-4-CF3)][Pro(4,4-F2)][Ac5c][NMeGly(cPent)][NMeD]-NMe2; lactam N-11)	C (A compound having a KD ratio of 0.1 or more and less than 3 is denoted as C)	C (A compound having a KD ratio of 0.1 or more and less than 3 is denoted as C)	0.054
CCCN1C(=O)[C@@H]2CCN2C(=O)[C@H](C)N(C)C(=O)[C@H]([C@@H](C)CC)NC(=O)[C@H](CC(C)C)N(C)C(=O)C[C@@H](C(=O)N(C)C)N(C)C(=O)[C@H](C2CCCC2)N(C)C(=O)C2(CCC2)NC(=O)[C@@H]2CC(F)(F)CN2C(=O)[C@H](CCc2ccc(C(F)(F)F)c(Cl)c2)NC(=O)CN(C)C(=O)[C@@H]1Cc1ccc(C(F)(F)F)cc1 [PP0437] ([NMeL]I[NMeA][Aze][NPrPhe(4-CF3)][Sar][hPhe(3-Cl-4-CF3)][Pro(4,4-F2)][Ac4c][NMeGly(cPent)][NMeD]-NMe2; lactam N-11)	B (a compound having 3 or more and less than 10 is denoted as B)	C (A compound having a KD ratio of 0.1 or more and less than 3 is denoted as C)	0.036
CCCN1C(=O)[C@@H]2CCN2C(=O)[C@H](C)N(C)C(=O)[C@H]([C@@H](C)CC)NC(=O)[C@H](CC(C)C)N(C)C(=O)C[C@@H](C(=O)N(C)C)N(C)C(=O)[C@H](C2CCCC2)N(C)C(=O)C2(CCCC2)NC(=O)[C@@H]2C[C@@H](OCC)CN2C(=O)[C@H](CCc2ccc(C(F)(F)F)c(Cl)c2)NC(=O)CN(C)C(=O)[C@@H]1Cc1ccc(C(F)(F)F)cc1 [PP0438] ([NMeL]I[NMeA][Aze][NPrPhe(4-CF3)][Sar][hPhe(3-Cl-4-CF3)][Hyp](Et)[Ac5c][NMeGly(cPent)][NMeD]-NMe2; lactam N-11)	C (A compound having a KD ratio of 0.1 or more and less than 3 is denoted as C)	C (A compound having a KD ratio of 0.1 or more and less than 3 is denoted as C)	0.03
CCCN1C(=O)[C@@H]2CCN2C(=O)CN(C)C(=O)[C@H]([C@@H](C)CC)NC(=O)[C@H](CC(C)C)N(C)C(=O)C[C@@H](C(=O)N(C)C)N(C)C(=O)[C@H](C2CCCC2)N(C)C(=O)C2(CCCC2)NC(=O)[C@@H]2CCCN2C(=O)[C@H](CCc2ccc(C(F)(F)F)c(Cl)c2)NC(=O)CN(C)C(=O)[C@@H]1Cc1ccc(C(F)(F)F)cc1 [PP0440] ([NMeL]I[Sar][Aze][NPrPhe(4-CF3)][Sar][hPhe(3-Cl-4-CF3)]P[Ac5c][NMeGly(cPent)][NMeD]-NMe2; lactam N-11)	B (a compound having 3 or more and less than 10 is denoted as B)	C (A compound having a KD ratio of 0.1 or more and less than 3 is denoted as C)	0.046
CCCN1C(=O)[C@@H]2CCN2C(=O)CN(C)C(=O)[C@H]([C@@H](C)CC)NC(=O)[C@H](CC(C)C)N(C)C(=O)C[C@@H](C(=O)N(C)C)N(C)C(=O)[C@H](C2CCCC2)N(C)C(=O)C2(CCC2)NC(=O)[C@@H]2CCCN2C(=O)[C@H](CCc2ccc(C(F)(F)F)c(Cl)c2)NC(=O)CN(C)C(=O)[C@@H]1Cc1ccc(C(F)(F)F)cc1 [PP0441] ([NMeL]I[Sar][Aze][NPrPhe(4-CF3)][Sar][hPhe(3-Cl-4-CF3)]P[Ac4c][NMeGly(cPent)][NMeD]-NMe2; lactam N-11)	C (A compound having a KD ratio of 0.1 or more and less than 3 is denoted as C)	C (A compound having a KD ratio of 0.1 or more and less than 3 is denoted as C)	0.072
CCCN1C(=O)[C@@H]2CCN2C(=O)CN(C)C(=O)[C@H]([C@@H](C)CC)NC(=O)[C@H](CC(C)C)N(C)C(=O)C[C@@H](C(=O)N(C)C)N(C)C(=O)[C@H](C2CCCC2)N(C)C(=O)C2(CCCC2)NC(=O)[C@@H]2CC(F)(F)CN2C(=O)[C@H](CCc2ccc(C(F)(F)F)c(Cl)c2)NC(=O)CN(C)C(=O)[C@@H]1Cc1ccc(C(F)(F)F)cc1 [PP0442] ([NMeL]I[Sar][Aze][NPrPhe(4-CF3)][Sar][hPhe(3-Cl-4-CF3)][Pro(4,4-F2)][Ac5c][NMeGly(cPent)][NMeD]-NMe2; lactam N-11)	C (A compound having a KD ratio of 0.1 or more and less than 3 is denoted as C)	C (A compound having a KD ratio of 0.1 or more and less than 3 is denoted as C)	0.037
CCCN1C(=O)[C@@H]2CCN2C(=O)CN(C)C(=O)[C@H]([C@@H](C)CC)NC(=O)[C@H](CC(C)C)N(C)C(=O)C[C@@H](C(=O)N(C)C)N(C)C(=O)[C@H](C2CCCC2)N(C)C(=O)C2(CCC2)NC(=O)[C@@H]2CC(F)(F)CN2C(=O)[C@H](CCc2ccc(C(F)(F)F)c(Cl)c2)NC(=O)CN(C)C(=O)[C@@H]1Cc1ccc(C(F)(F)F)cc1 [PP0443] ([NMeL]I[Sar][Aze][NPrPhe(4-CF3)][Sar][hPhe(3-Cl-4-CF3)][Pro(4,4-F2)][Ac4c][NMeGly(cPent)][NMeD]-NMe2; lactam N-11)	C (A compound having a KD ratio of 0.1 or more and less than 3 is denoted as C)	C (A compound having a KD ratio of 0.1 or more and less than 3 is denoted as C)	0.027
